Converted amounts (≈) assume the structure as drawn. Like-named read-outs stand apart in the source and are kept apart here.
Tests used:
[1] = system: P. aeruginosa KW799/wt; assay: Agar diffusion antibacterial susceptibility assay; format: cell-based, Pseudomonas aeruginosa; details: 37° C.; for zone of inhibition at 100 µM / zone of inhibition at 200 µM: Pseudomonas aeruginosa, KW799/WT, 24 h, read-out: Diameter of growth inhibition zones; for zone of inhibition at 100 µM: 50 μL of 0.1 mM solution; for Diameter of growth inhibition zones / zone of inhibition at 200 µM: 50 μL of 0.2 mM solution; for Diameter of growth inhibition zones: 24 hours
Procedure: (§1) All liquids and media were sterilized by autoclaving (121° C., 15 min) before use. All aqueous solutions and media were prepared using distilled, deionized, and filtered water (Millipore Milli-Q Advantage A10 Water Purification System). Luria broth (LB) was purchased from VWR. Mueller-Hinton No. 2 broth (MHII broth; cation adjusted) was purchased from Sigma-Aldrich (St. Louis, Mo.). Iron-deficient (—Fe) MHII broth was prepared by adding 0.8 mL of a 1 mg/mL sterile aq. solution of 2,2′-bipyridine to 49.2 mL of MHII broth. Iron-rich (+Fe) MHII broth was prepared by adding 0.8 mL of a 1 mg/mL sterile aq. solution of FeCl3 to 49.2 mL of MHII broth. Mueller-Hinton No. 2 agar (MHII agar; HiMedia Laboratories) was purchased from VWR. Iron-deficient (−Fe) MHII agar was prepared by adding 0.5 mL of a 1 mg/mL sterile aq. solution of 2,2′-bipyridine to 34 mL of melted MHII agar with gentle mixing. Iron-rich (+Fe) MHII agar was prepared by adding 0.5 mL of a 1 mg/mL sterile aq. solution of FeCl3 to 34 mL of melted MHII agar with gentle mixing. See also Wencewicz, T. A. Dissertation, University of Notre Dame, Notre Dame, Ind., 2011, for relevant techniques.
(§2) Antibacterial Susceptibility Testing by the Agar Diffusion Assay.
(§3) Antibacterial activity of the compounds was determined by a modified Kirby-Bauer agar diffusion assay. Overnight cultures of test organisms were grown in LB broth for 18-24 h and standard suspensions of […] were prepared in saline solution (0.9% NaCl) according to a 0.5 BaSO4 McFarland Standard. This standardized suspension (0.1 mL) was added to 34 mL of sterile, melted agar (−Fe or +Fe) tempered to 47-50° C. After gentle mixing, the inoculated agar media was poured into a sterile plastic petri dish (145 mm×20 mm) and allowed to solidify near a flame with the lid ajar for about 30 min. Wells of 9.0 mm diameter were cut from the petri dish agar and filled with exactly 50 μL of the test sample solution. The petri dish was incubated at 37° C. for 18-24 h and the inhibition zone diameters were measured (mm) with an electronic caliper after 24 h.

[2] = system: P. aeruginosa K648 (pvd−, pch−); assay: Agar diffusion antibacterial susceptibility assay; format: cell-based, Pseudomonas aeruginosa; details: for zone of inhibition at 100 µM / zone of inhibition at 200 µM: Pseudomonas aeruginosa, 24 h, read-out: Diameter of growth inhibition zones, P. aeruginosa K648 (pvd−, pch−), 37° C., 24 hours; for zone of inhibition at 100 µM: 50 μL of 0.1 mM solution; for activity against K648 strain (agar diffusion, in words): iron-rich medium; for zone of inhibition at 200 µM: 50 μL of 0.2 mM solution
Procedure: as §1, §2, §3

[3] = system: P. aeruginosa Pa6; assay: Agar diffusion antibacterial susceptibility assay; format: cell-based, Pseudomonas aeruginosa; details: for Diameter of growth inhibition zones: −Fe agar; for activity against clinical isolate Pa6 (agar diffusion, in words): even under iron-deficient conditions
Procedure: as §1, §2, §3

[4] = system: P. aeruginosa KW799/wt; assay: MIC90 by broth microdilution assay; format: cell-based; details: Pseudomonas aeruginosa, 20 h, 37° C.
Procedure: (§4) ^aMIC90 values (μM) were determined using the broth microdilution method in Mueller-Hinton broth No. 2 (MHII) with visual end point analysis according to the CLSI guidelines (Methods for Dilution Antimicrobial Susceptibility Tests for Bacteria that Grow Aerobically, 8th ed. (Villanova, Pa., USA), Clinical and Laboratory Standards Institute (CLSI), 2009, approved standard document M07-A7). ^bEach compound was tested in triplicate.
as §1
(§5) Determination of MIC90 Values by the Broth Microdilution Assay.
(§6) Antibacterial activity of the compounds was determined by measuring their minimum inhibitory concentrations (MIC90's) using the broth microdilution method according to the Clinical and Laboratory Standards Institute (CLSI, formerly the NCCLS) guidelines. Each well of a 96-well microtiter plate was filled with 50 μL of sterile broth media (−Fe or +Fe). Each test compound was dissolved in DMSO making a 20 mM solution, and then diluted with sterile broth media (−Fe or +Fe) to 400 or 800 μM. Exactly 50 μL of the compound solution was added to the first well of the microtiter plate and 2-fold serial dilutions were made down each row of the plate. Exactly 50 μL of bacterial inoculum (5×10^5 CFU/mL in broth media) was then added to each well giving a total volume of 100 μL/well. The plate was incubated at 37° C. for 20 h and then each well was examined for bacterial growth. The MIC90 was recorded as the lowest compound concentration (μM) required to inhibit 90% of bacterial growth as judged by turbidity of the culture media relative to a row of wells filled with a DMSO standard.

[5] = system: P. aeruginosa PAO1; assay: MIC90 by broth microdilution assay; format: cell-based; details: Pseudomonas aeruginosa, PAO1, 20 h, 37° C.
Procedure: as §4, §1, §5, §6

[6] = system: K. pneumoniae ATCC 8303 X68; assay: MIC90 by broth microdilution assay; format: cell-based; details: Klebsiella pneumoniae; for MIC90: ATCC8303, 20 h, K. pneumoniae ATCC 8303 X68, 37° C., 20 h; for MIC: ATCC8303, stated as inactive, read-out: MIC against K. pneumoniae
Procedure: as §4, §1, §5, §6

[7] = system: P. aeruginosa KW799/61; assay: MIC90 by broth microdilution assay; format: cell-based; details: Pseudomonas aeruginosa, KW799/61, 20 h
Procedure: as §4, §1, §5, §6

[8] = system: P. aeruginosa Pa4; assay: MIC90 by broth microdilution assay; format: cell-based; details: Pseudomonas aeruginosa, PA4, 20 h, 37° C.
Procedure: as §4, §1, §5, §6

[9] = system: E. coli H1876 (fepA−, cir−, fiu−); assay: Agar diffusion antibacterial susceptibility assay; format: cell-based, Escherichia coli; details: for Diameter of growth inhibition zones: E. coli H1876 (fepA−, cir−, fiu−), −Fe agar, 37° C., 24 hours; for zone of inhibition at 200 µM: Escherichia coli, 24 h, read-out: Diameter of growth inhibition zones
Procedure: as §1, §2, §3

[10] = system: P. aeruginosa Pa4; assay: Agar diffusion antibacterial susceptibility assay; format: cell-based, Pseudomonas aeruginosa; design: key to Diameter of growth inhibition zones: partially clear inhibition zone/colonies in the inhibition zone; P: unclear inhibition zone/many colonies in the inhibition zone; indicates only a hint of growth inhibition detectable; details: 37° C.; for zone of inhibition at 100 µM / zone of inhibition at 200 µM: Pseudomonas aeruginosa, PA4, 24 h, read-out: Diameter of growth inhibition zones; for zone of inhibition at 100 µM: 50 μL of 0.1 mM solution; for zone of inhibition at 200 µM / Diameter of growth inhibition zones: 50 μL of 0.2 mM solution; for Diameter of growth inhibition zones: 24 hours
Procedure: as §1, §2, §3

[11] = −Fe (iron-deficient) MHII broth
[12] = read-out: MIC (MIC90), P. aeruginosa KW799/61, +Fe (iron-rich) MHII broth, 37° C.
[13] = read-out: MIC (MIC90), P. aeruginosa KW799/61, −Fe (iron-deficient) MHII broth, 37° C.
[14] = P. aeruginosa Pa6, 50 μL of 0.2 mM solution, 37° C., 24 hours
[15] = Pseudomonas aeruginosa, P. aeruginosa Pa6, +Fe agar, 50 μL of 0.2 mM solution, 37° C., 24 hours, read-out: Diameter of growth inhibition zones

Compound	activity against K648 strain (agar diffusion, in words) [2]	activity against clinical isolate Pa6 (agar diffusion, in words) [3]	MIC90 ([4]; +Fe (iron-rich) MHII broth)	MIC90 [4, 11]	MIC90 ([5]; +Fe (iron-rich) MHII broth)	MIC90 [5, 11]	MIC90 ([6]; +Fe (iron-rich) MHII broth)	MIC90 [6, 11]	MIC [6]	MIC90 [7, 12]	MIC90 [7, 13]	MIC90 ([8]; +Fe (iron-rich) MHII broth)	MIC90 [8, 11]	Diameter of growth inhibition zones ([1]; −Fe agar)	zone of inhibition at 200 µM ([2]; +Fe agar)	zone of inhibition at 200 µM ([2]; −Fe agar)	Diameter of growth inhibition zones [3, 14]	zone of inhibition at 200 µM [3, 15]	Diameter of growth inhibition zones ([9]; 50 μL of 0.2 mM solution)	zone of inhibition at 200 µM ([10]; +Fe agar)	other results
CC(=O)Oc1cccc(C(=O)NCCCC(CCCNC(=O)c2cccc(OC(C)=O)c2OC(C)=O)(CCCNC(=O)c2cccc(OC(C)=O)c2OC(C)=O)NC(=O)CCC(=O)NC(C(=O)NC2C(=O)N3C2SC(C)(C)C3C(=O)O)c2ccccc2)c1OC(C)=O (centres unmarked) [Compound 10]	inactive	no activity	33 µM (≈ 42.7 µg/mL)	0.05 µM (≈ 0.0647 µg/mL)	50 µM (≈ 64.7 µg/mL)	0.39 µM (≈ 0.505 µg/mL)	> 200 µM	> 100 µM	> 100 µM	12.5 µM (≈ 16.2 µg/mL)	0.067 µM (≈ 0.0867 µg/mL)	25 µM (≈ 32.4 µg/mL)	0.39 µM (≈ 0.505 µg/mL)								zone of inhibition at 100 µM ([1]; +Fe agar): 20 mm; zone of inhibition at 100 µM ([1]; −Fe agar): 24 mm; zone of inhibition at 100 µM ([2]; +Fe agar): 0 mm; zone of inhibition at 100 µM ([2]; −Fe agar): 15 mm; Diameter of growth inhibition zones ([3]; P. aeruginosa Pa6, 50 μL of 0.1 mM solution, 37° C., 24 hours): 0 mm; zone of inhibition at 100 µM ([3]; Pseudomonas aeruginosa, P. aeruginosa Pa6, +Fe agar, 50 μL of 0.1 mM solution, 37° C., 24 hours, read-out: Diameter of growth inhibition zones): 0 mm; Diameter of growth inhibition zones ([9]; 50 μL of 0.1 mM solution): 0 mm; zone of inhibition at 100 µM ([10]; +Fe agar): 0 mm; zone of inhibition at 100 µM ([10]; −Fe agar): 18 mm
CC1(C)S[C@@H]2[C@H](NC(=O)[C@H](N)c3ccccc3)C(=O)N2[C@H]1C(=O)O [Ampicillin, reference compound]			> 200 µM	> 200 µM	> 200 µM	> 100 µM	> 200 µM	> 100 µM		0.52 µM (≈ 0.182 µg/mL)	0.78 µM (≈ 0.273 µg/mL)	> 200 µM	> 100 µM	23p	0 mm	0 mm	0 mm	0 mm	0 mm	0 mm	zone of inhibition at 200 µM [9]: 0 mm; Diameter of growth inhibition zones ([10]; −Fe agar): h
CC1(C)S[C@@H]2[C@H](NC(=O)[C@H](N)c3ccc(O)cc3)C(=O)N2[C@H]1C(=O)O [Amoxicillin, reference compound]			> 200 µM	> 200 µM	> 200 µM	> 100 µM	100 µM (≈ 36.5 µg/mL)	> 100 µM		0.46 µM (≈ 0.168 µg/mL)	0.39 µM (≈ 0.143 µg/mL)	> 200 µM	> 100 µM	18p	0 mm	0 mm	0 mm	0 mm	0 mm	0 mm	zone of inhibition at 200 µM ([1]; +Fe agar): 27 mm; zone of inhibition at 200 µM [9]: 0 mm; Diameter of growth inhibition zones ([10]; −Fe agar): h
CC(=O)Oc1cccc(C(=O)NCCCC(CCCNC(=O)c2cccc(OC(C)=O)c2OC(C)=O)(CCCNC(=O)c2cccc(OC(C)=O)c2OC(C)=O)NC(=O)CCC(=O)NC(C(=O)NC2C(=O)N3C2SC(C)(C)C3C(=O)O)c2ccc(O)cc2)c1OC(C)=O (centres unmarked) [Compound 11]	inactive	no activity	25 µM (≈ 32.8 µg/mL)	0.05 µM (≈ 0.0655 µg/mL)	50 µM (≈ 65.5 µg/mL)	0.39 µM (≈ 0.511 µg/mL)	> 200 µM	> 100 µM	> 100 µM	12.5 µM (≈ 16.4 µg/mL)	0.083 µM (≈ 0.109 µg/mL)	25 µM (≈ 32.8 µg/mL)	0.21 µM (≈ 0.275 µg/mL)		0 mm	17 mm	0 mm	0 mm	14p	0 mm	zone of inhibition at 200 µM ([1]; +Fe agar): 25 mm; zone of inhibition at 200 µM ([1]; −Fe agar): 26 mm; zone of inhibition at 200 µM ([10]; −Fe agar): 20 mm

Reference: US9302012B2, “Anti-bacterial siderophore-aminopenicillin conjugates” (University of Notre Dame Du Lac, priority 2012, dated 2016)
